# US12077503B2, “Substituted cyclic amides and their use as herbicides” (FMC CORPORATION, priority 2015, dated 2024)
# Experiments:
# Format in all cases: in vivo
# [1] = tested on: pigweed (Amaranthus retroflexus); assay: Test A preemergence; settings: Amaranthus retroflexus, pre-emergence, 240 h; for pest or weed control at 125 g/ha: 125 g ai/ha, Preemergence, visual injury rating after approximately 10 d, read-out: Pigweed plant response rating (0 to 100 scale, 0 is no effect, 100 is complete control); for pest or weed control at 500 g/ha: 500 g ai/ha, preemergence, visual injury rating about 10 d after treatment, 0 to 100 scale (0 no effect, 100 complete control), read-out: Pigweed plant response rating
# [2] = tested on: ragweed (common ragweed, Ambrosia elatior); assay: Test A preemergence; settings: Ambrosia artemisiifolia, pre-emergence, 240 h; for pest or weed control at 125 g/ha: 125 g ai/ha, Preemergence, visual injury rating after approximately 10 d, read-out: Ragweed plant response rating (0 to 100 scale, 0 is no effect, 100 is complete control); for pest or weed control at 500 g/ha: 500 g ai/ha, preemergence, visual injury rating about 10 d after treatment, 0 to 100 scale (0 no effect, 100 complete control), read-out: Ragweed plant response rating
# Summary of the method: (§1)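 Visual injury scores from 0, no effect, to 100, complete control, were assigned versus untreated controls roughly 10 d after treatment in the greenhouse. Test chemicals, formulated with surfactant in a non-phytotoxic solvent, were applied to planted seeds as a preemergence soil spray or postemergence to one- to two-leaf plants 2 to 10 cm tall, in loam–sand soil.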
# Kochia (Kochia scoparia) [3] = assay: Test A preemergence; settings: Bassia scoparia, pre-emergence, 240 h; for pest or weed control at 125 g/ha: 125 g ai/ha, Preemergence, visual injury rating after approximately 10 d, read-out: Kochia plant response rating (0 to 100 scale, 0 is no effect, 100 is complete control); for pest or weed control at 500 g/ha: 500 g ai/ha, preemergence, visual injury rating about 10 d after treatment, 0 to 100 scale (0 no effect, 100 complete control), read-out: Kochia plant response rating
# Summary of the method: as §1
# [4] = tested on: giant foxtail (Setaria faberii); assay: Test A preemergence; settings: Setaria faberi, pre-emergence, 240 h; for pest or weed control at 125 g/ha: 125 g ai/ha, Preemergence, visual injury rating after approximately 10 d, read-out: Foxtail, Giant plant response rating (0 to 100 scale, 0 is no effect, 100 is complete control); for pest or weed control at 500 g/ha: 500 g ai/ha, preemergence, visual injury rating about 10 d after treatment, 0 to 100 scale (0 no effect, 100 complete control), read-out: Foxtail, Giant plant response rating
# Summary of the method: as §1
# [5] = tested on: barnyardgrass (Echinochloa crus-galli); assay: Test A preemergence; settings: Echinochloa crus-galli, pre-emergence, 240 h; for pest or weed control at 125 g/ha: 125 g ai/ha, Preemergence, visual injury rating after approximately 10 d, read-out: Barnyardgrass plant response rating (0 to 100 scale, 0 is no effect, 100 is complete control); for pest or weed control at 500 g/ha: 500 g ai/ha, preemergence, visual injury rating about 10 d after treatment, 0 to 100 scale (0 no effect, 100 complete control), read-out: Barnyardgrass plant response rating
# Summary of the method: as §1
# [6] = tested on: ryegrass, Italian (Italian ryegrass, Lolium multiflorum); assay: Test A preemergence; settings: Lolium multiflorum, pre-emergence, 240 h; for pest or weed control at 125 g/ha: 125 g ai/ha, Preemergence, visual injury rating after approximately 10 d, read-out: Ryegrass, Italian plant response rating (0 to 100 scale, 0 is no effect, 100 is complete control); for pest or weed control at 500 g/ha: 500 g ai/ha, preemergence, visual injury rating about 10 d after treatment, 0 to 100 scale (0 no effect, 100 complete control), read-out: Ryegrass, Italian plant response rating
# Summary of the method: as §1
# corn (Zea mays) = assay: Test A postemergence; settings: Zea mays, post-emergence, 240 h; for Corn plant response rating (crop injury, 0 = no effect, 100 = complete kill) at 125 g/ha: 125 g ai/ha, Postemergence, visual injury after approximately 10 d, 0 to 100 scale where 0 is no effect and 100 is complete control; for Corn plant response rating (crop injury, 0 = no effect, 100 = complete kill) at 500 g/ha: 500 g ai/ha, postemergence, visual injury, 0 to 100 scale (0 no effect, 100 complete control), approx. 10 d
# Summary of the method: as §1
# [7] = tested on: pigweed (Amaranthus retroflexus); assay: Test A postemergence; settings: Amaranthus retroflexus, post-emergence, 240 h, read-out: Plant response rating, Pigweed; for pest or weed control at 125 g/ha: 125 g ai/ha, Postemergence, visual injury after approximately 10 d, 0 to 100 scale where 0 is no effect and 100 is complete control; for pest or weed control at 500 g/ha: 500 g ai/ha, postemergence, visual injury, 0 to 100 scale (0 no effect, 100 complete control), approx. 10 d
# Summary of the method: as §1
# [8] = tested on: ragweed (common ragweed, Ambrosia elatior); assay: Test A postemergence; settings: Ambrosia artemisiifolia, post-emergence, 240 h, read-out: Plant response rating, Ragweed; for pest or weed control at 125 g/ha: 125 g ai/ha, Postemergence, visual injury after approximately 10 d, 0 to 100 scale where 0 is no effect and 100 is complete control; for pest or weed control at 500 g/ha: 500 g ai/ha, postemergence, visual injury, 0 to 100 scale (0 no effect, 100 complete control), approx. 10 d
# Summary of the method: as §1
# [9] = tested on: Galium (catchweed bedstraw, Galium aparine); assay: Test A postemergence; settings: Galium, post-emergence, 240 h, read-out: Plant response rating, Galium; for pest or weed control at 125 g/ha: 125 g ai/ha, Postemergence, visual injury after approximately 10 d, 0 to 100 scale where 0 is no effect and 100 is complete control; for pest or weed control at 500 g/ha: 500 g ai/ha, postemergence, visual injury, 0 to 100 scale (0 no effect, 100 complete control), approx. 10 d
# Summary of the method: as §1
# Kochia (Kochia scoparia) [10] = assay: Test A postemergence; settings: Bassia scoparia, post-emergence, 240 h, read-out: Plant response rating, Kochia; for pest or weed control at 125 g/ha: 125 g ai/ha, Postemergence, visual injury after approximately 10 d, 0 to 100 scale where 0 is no effect and 100 is complete control; for pest or weed control at 500 g/ha: 500 g ai/ha, postemergence, visual injury, 0 to 100 scale (0 no effect, 100 complete control), approx. 10 d
# Summary of the method: as §1
# [11] = tested on: wheat (Triticum aestivum); assay: Test A postemergence; settings: Triticum aestivum, post-emergence, 240 h, read-out: Plant response rating, Wheat; for plant injury at 125 g/ha: 125 g ai/ha, Postemergence, visual injury after approximately 10 d, 0 to 100 scale where 0 is no effect and 100 is complete control; for plant injury at 500 g/ha: 500 g ai/ha, postemergence, visual injury, 0 to 100 scale (0 no effect, 100 complete control), approx. 10 d
# Summary of the method: as §1
# [12] = tested on: giant foxtail (Setaria faberii); assay: Test A postemergence; settings: Setaria faberi, post-emergence, 240 h, read-out: Plant response rating, Foxtail, Giant; for pest or weed control at 125 g/ha: 125 g ai/ha, Postemergence, visual injury after approximately 10 d, 0 to 100 scale where 0 is no effect and 100 is complete control; for pest or weed control at 500 g/ha: 500 g ai/ha, postemergence, visual injury, 0 to 100 scale (0 no effect, 100 complete control), approx. 10 d
# Summary of the method: as §1
# [13] = tested on: blackgrass (Alopecurus myosuroides); assay: Test A postemergence; settings: Alopecurus myosuroides, post-emergence, 240 h, read-out: Plant response rating, Blackgrass; for pest or weed control at 125 g/ha: 125 g ai/ha, Postemergence, visual injury after approximately 10 d, 0 to 100 scale where 0 is no effect and 100 is complete control; for pest or weed control at 500 g/ha: 500 g ai/ha, postemergence, visual injury, 0 to 100 scale (0 no effect, 100 complete control), approx. 10 d
# Summary of the method: as §1
# [14] = tested on: barnyardgrass (Echinochloa crus-galli); assay: Test A postemergence; settings: Echinochloa crus-galli, post-emergence, 240 h, read-out: Plant response rating, Barnyardgrass; for pest or weed control at 125 g/ha: 125 g ai/ha, Postemergence, visual injury after approximately 10 d, 0 to 100 scale where 0 is no effect and 100 is complete control; for pest or weed control at 500 g/ha: 500 g ai/ha, postemergence, visual injury, 0 to 100 scale (0 no effect, 100 complete control), approx. 10 d
# Summary of the method: as §1
# [15] = tested on: ryegrass, Italian (Italian ryegrass, Lolium multiflorum); assay: Test A postemergence; settings: Lolium multiflorum, post-emergence, 240 h, read-out: Plant response rating, Ryegrass, Italian; for pest or weed control at 125 g/ha: 125 g ai/ha, Postemergence, visual injury after approximately 10 d, 0 to 100 scale where 0 is no effect and 100 is complete control; for pest or weed control at 500 g/ha: 500 g ai/ha, postemergence, visual injury, 0 to 100 scale (0 no effect, 100 complete control), approx. 10 d
# Summary of the method: as §1
# [16] = tested on: ducksalad (Heteranthera limosa); assay: Test B flooded paddy test; settings: Heteranthera limosa, 250 g ai/ha, Flood; 0 to 100 scale where 0 is no effect and 100 is complete control; read-out: Ducksalad plant response rating
# Summary of the method: (§2)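 Rating scale 0–100 (visual, vs untreated controls) after a 13–15 d greenhouse period; application to the flood layer, 3 cm above soil and maintained; plants at 2-leaf stage when treated.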
# rice (Oryra sativa) = assay: Test B flooded paddy test; settings: Oryza sativa, 250 g ai/ha, Flood; 0 to 100 scale where 0 is no effect and 100 is complete control; read-out: Rice plant response rating
# Summary of the method: as §2
# [17] = tested on: sedge, umbrella (small-flower umbrella sedge, Cyperus difformis); assay: Test B flooded paddy test; settings: Cyperus difformis, 250 g ai/ha, Flood; 0 to 100 scale where 0 is no effect and 100 is complete control; read-out: Sedge, Umbrella plant response rating
# Summary of the method: as §2
# [18] = tested on: barnyardgrass (Echinochloa crus-galli); assay: Test B flooded paddy test; settings: Echinochloa crus-galli, 250 g ai/ha, Flood; 0 to 100 scale where 0 is no effect and 100 is complete control; read-out: Barnyardgrass plant response rating
# Summary of the method: as §2
SMILES,pest or weed control at 125 g/ha [1] [%],pest or weed control at 500 g/ha [1] [%],pest or weed control at 125 g/ha [2] [%],pest or weed control at 500 g/ha [2] [%],pest or weed control at 125 g/ha (Kochia (Kochia scoparia) [3]) [%],pest or weed control at 500 g/ha (Kochia (Kochia scoparia) [3]) [%],pest or weed control at 125 g/ha [4] [%],pest or weed control at 500 g/ha [4] [%],pest or weed control at 125 g/ha [5] [%],pest or weed control at 500 g/ha [5] [%],pest or weed control at 125 g/ha [6] [%],pest or weed control at 500 g/ha [6] [%],"Corn plant response rating (crop injury, 0 = no effect, 100 = complete kill) at 125 g/ha (corn (Zea mays)) [%]","Corn plant response rating (crop injury, 0 = no effect, 100 = complete kill) at 500 g/ha (corn (Zea mays)) [%]",pest or weed control at 125 g/ha [7] [%],pest or weed control at 500 g/ha [7] [%],pest or weed control at 125 g/ha [8] [%],pest or weed control at 500 g/ha [8] [%],pest or weed control at 125 g/ha [9] [%],pest or weed control at 500 g/ha [9] [%],further results
CSc1ccccc1NC(=O)[C@H]1C(=O)N(C)C[C@@H]1c1ccc(C)c(Cl)c1 [Compound 1015],0,40,0,50,0,60,90,90,90,90,40,90,70,90,30,50,0,40,40,70,pest or weed control at 125 g/ha (Kochia (Kochia scoparia) [10]): 0%; pest or weed control at 500 g/ha (Kochia (Kochia scoparia) [10]): 50%; plant injury at 125 g/ha [11]: 0%; plant injury at 500 g/ha [11]: 60%; pest or weed control at 125 g/ha [12]: 80%; pest or weed control at 500 g/ha [12]: 80%; pest or weed control at 125 g/ha [13]: 0%; pest or weed control at 500 g/ha [13]: 50%; pest or weed control at 125 g/ha [14]: 90%; pest or weed control at 500 g/ha [14]: 90%; pest or weed control at 125 g/ha [15]: 30%; pest or weed control at 500 g/ha [15]: 50%; pest or weed control at 250 g/ha [16]: 90%; pest or weed control at 250 g/ha (rice (Oryra sativa)): 40%; pest or weed control at 250 g/ha [17]: 35%; pest or weed control at 250 g/ha [18]: 95%
Cc1ccc([C@H]2CN(C)C(=O)[C@@H]2C(=O)Nc2ccccc2S(C)(=O)=O)cc1Cl [Compound 1018],30,80,0,40,0,60,90,90,90,90,0,70,70,90,30,60,0,30,30,60,pest or weed control at 125 g/ha (Kochia (Kochia scoparia) [10]): 30%; pest or weed control at 500 g/ha (Kochia (Kochia scoparia) [10]): 50%; plant injury at 125 g/ha [11]: 30%; plant injury at 500 g/ha [11]: 50%; pest or weed control at 125 g/ha [12]: 90%; pest or weed control at 500 g/ha [12]: 90%; pest or weed control at 125 g/ha [13]: 0%; pest or weed control at 500 g/ha [13]: 50%; pest or weed control at 125 g/ha [14]: 90%; pest or weed control at 500 g/ha [14]: 90%; pest or weed control at 125 g/ha [15]: 30%; pest or weed control at 500 g/ha [15]: 60%; pest or weed control at 250 g/ha [16]: 90%; pest or weed control at 250 g/ha (rice (Oryra sativa)): 0%; pest or weed control at 250 g/ha [17]: 0%; pest or weed control at 250 g/ha [18]: 65%
